Experiments:
NF-κB = experiment: Test on the function of inhibiting the activation of NF-κB induced by ultraviolet rays (gel shift assay); format: cell-based, human; settings: for Inhibition ratio (%) of NF-κB activation: human epidermal cells, UVB 50 mJ/cm^2
Experimental: Test on the Function of Inhibiting the Activation of NF-κB Induced by Ultraviolet Rays.
After 18 hours had elapsed, the culture medium was substituted by a phenol red-free medium. The cells were exposed to ultraviolet rays (UVB: 50 mJ/cm^2) from an ultraviolet irradiator “Dermaray M-DMR-80” (ex Toshiba Medical Supply Co., Ltd.). After 4 to 5 hours had elapsed, the cells were collected, and the nucleoprotein was extracted therefrom in a manner known per se in the art. From the resulting nucleoprotein, the activated NF-κB was detected in accordance with the gel shift assay. The amount of the NF-κB was determined by measuring the radioactive value of the NF-κB band with the use of a bioimaging analyzer “BAS 2000” (ex Fuji Film Co., Ltd.).
The inhibition ratio of the activation of the NF-κB of the test compounds was calculated from the below-described formula (1).
Inhibition ratio of NF-κB activation (%)={1−(A1-A3)/(A2-A3)}×100 (1)
A1: radioactive value of the NF-κB upon addition of a test compound
A2: radioactive value of NF-κB when a test compound is not added
A3: radioactive value of NF-κB when a test compound is not added and is not exposed to ultraviolet rays.

AP-1 = experiment: Test on the function of inhibiting the AP-1 activation induced by ultraviolet rays (gel shift assay); format: cell-based, human; settings: single compound
Experimental: Test on the Function of Inhibiting the AP-1 Activation Induced by Ultraviolet Rays.
In a similar manner to Test Example 1, a nucleoprotein was obtained. Then, the activated AP-1 was detected by the gel shift assay. The radioactive value of the AP-1 band was measured as in Test Example 1, whereby the amount of the AP-1 was determined. The AP-1 activation inhibiting ratio of the test compounds was calculated by the below-described equation (2). The results of the test compounds according to the present invention are shown below in Table 4a, while those of the comparative compounds are shown below in Table 4b.
AP-1 activation inhibiting ratio (%)={1−(B1-B3)/(B2-B3)}×100 (2)
B1: radioactive value of the AP-1 band upon addition of a test compound.
B2: radioactive value of the AP-1 band when a test compound is not added.
B3: radioactive value of the AP-1 band when a test compound is not added and is not exposed to ultraviolet rays.

Hairless mice (SKH-1) = experiment: Test on inhibiting function of wrinkles formation induced by ultraviolet rays (No. 2), Components (A) and (B) in combination; format: in vivo, mouse; set-up: scale not given here
Experimental: Hairless mice (SKH-1, female, 5-6 weeks old) were exposed to ultraviolet rays (UVB) three times/week (Monday, Wednesday and Friday) for 5 weeks, each at 50 to 100 mJ/cm^2 by using the above-described “Dermaray M-DMR-80” (ex Toshiba Medical Supply Co., Ltd.). The test compound (N,N′-diacetyl-L-cystine dimethyl ester) was dissolved in a mixed solvent of propylene glycol, ethanol and water, and was applied to the back portion of each of the mice in an amount of 100 μl, 30 to 60 minutes before exposure to ultraviolet rays, just after the completion of the exposure, and on the days free from exposure to ultraviolet rays (Sunday, Tuesday, Thursday and Saturday). From two weeks after the exposure had started, the wrinkles formed on the back portion of each mouse were evaluated once a week based on the below-described standards, and they were indicated as scores. In addition, the function of the inventive compound for inhibiting wrinkle formation induced by ultraviolet rays was judged based on the below-described judging standards.
Test on Inhibiting Function of Wrinkles Formation Induced by Ultraviolet Rays (No. 2)
Function of suppressing ultraviolet ray-induced wrinkles formation by the synergistic effects when Components (A) and (B) were used in combination, was judged in a similar manner to Test Example 2. Fifteen to twenty mice were divided into 4 groups, that is, a 1st group to which a mixed solvent of propylene glycol, ethanol and water was to be applied, a 2nd group to which a solution of only Component (A) dissolved in the above-described solvent was to be applied, a 3rd group to which a solution of only Component (B) dissolved in the above-described solvent was to be applied, and a 4th group to which a solution of both Components (A) and (B) dissolved in the above-described solvent was to be applied. An average score of each group was determined.

Structure (SMILES)	Inhibition ratio (%) of NF-κB activation (NF-κB; addition concentration 0.1 mM) [%]	Inhibition ratio (%) of NF-κB activation (NF-κB; addition concentration 0.01 mM) [%]	also measured
CCCCCCCCCCCC(=O)N[C@@H](CSSC[C@H](N)C(=O)O)C(=O)O [N-lauroyl-L-cystine]	14	–	Inhibition ratio (%) of NF-κB activation (NF-κB; addition concentration 0.5 mM): 86%
CCCCCCCCCC(=O)N[C@@H](CSSC[C@H](NC(=O)CCCCCCCCC)C(=O)OC)C(=O)OC [N,N′-di(n-decanoyl)-L-cystine dimethyl ester]	68	56	–
COC(=O)[C@H](CCSSCC[C@H](NC(C)=O)C(=O)OC)NC(C)=O (racemic) [N,N′-diacetyl -DL-homocystine dimethyl ester]	46	10	–
CC(=O)N[C@@H](CSSC[C@H](NC(C)=O)C(=O)O)C(=O)O [N,N′ -diacetyl-L-cystine, N,N′-diacetyl-L-cystine, reference compound]	–	–	Inhibition ratio (%) of NF-κB activation (NF-κB; addition concentration 10 mM): 48%; Inhibition ratio (%) of NF-κB activation (NF-κB; addition concentration 30 mM): 67%
CCCCCCCC(=O)N[C@@H](CSSC[C@H](NC(=O)CCCCCCC)C(=O)OC)C(=O)OC [N,N′-di(n-octanoyl)-L-cystine dimethyl ester]	91	33	–
Cc1c(C)c2c(c(C)c1O)CCC(C)(CCCC(C)CCCC(C)CCCC(C)C)O2 (racemic) [dl-α-tocopherol]	–	–	AP-1 activation Inhibiting ratio (%) (AP-1; 10 μM): 5%; AP-1 activation Inhibiting ratio (%) (AP-1; 100 μM): −1%; Wrinkle score (group average) (Hairless mice (SKH-1); 5% alone, 2nd week): 2.0; Wrinkle score (group average) (Hairless mice (SKH-1); 5% alone, 3rd week): 3.0; Wrinkle score (group average) (Hairless mice (SKH-1); 5% alone, 4th week): 2.5; Wrinkle score (group average) (Hairless mice (SKH-1); 5% alone, 5th week): 3.5
CCCCC(=O)N[C@@H](CSSC[C@H](NC(=O)CCCC)C(=O)OC)C(=O)OC [N,N′-di(n-valeryl)-L-cystine dimethyl ester]	64	18	–
COC(=O)[C@H](CSC(C)=O)NC(C)=O [N,S-diacetyl-L-cystine methyl ester]	31	20	–
CC(=O)N[C@@H](CSSC[C@H](N)C(=O)O)C(=O)OC(C)C [N-acetyl-L-cystine isopropylester]	82	21	–
CCCCCCCCCCCC(=O)N[C@@H](CSSC[C@H](N)C(=O)O)C(=O)OC [N-lauroyl-L-cystine methyl ester]	43	36	–
CCCC(=O)N[C@@H](CSSC[C@H](NC(=O)CCC)C(=O)OC)C(=O)OC [N,N′-di(n-butyryl)-L-cystine dimethyl ester]	79	52	–
CC1(C)[C@@H](O[C@H]2O[C@H](C(=O)O)[C@@H](O)[C@H](O)[C@H]2O[C@@H]2O[C@H](C(=O)O)[C@@H](O)[C@H](O)[C@H]2O)CC[C@]2(C)[C@H]3C(=O)C=C4[C@@H]5C[C@@](C)(C(=O)O)CC[C@]5(C)CC[C@@]4(C)[C@]3(C)CC[C@@H]12 [glycyrrhizic acid]	–	–	AP-1 activation Inhibiting ratio (%) (AP-1; 0.1 mM): 3%; AP-1 activation Inhibiting ratio (%) (AP-1; 1 mM): −70%
COC(=O)[C@H](CSSC[C@H](N)C(=O)O)NC(C)=O [N-acetyl-L-cystine methyl ester]	95	28	–
CCC(=O)N[C@@H](CSSC[C@H](NC(=O)CC)C(=O)OC)C(=O)OC [N,N′-di(n-propionyl)-L-cystine dimethyl ester]	54	17	–
CCOC(=O)[C@H](CSSC[C@H](N)C(=O)O)NC(C)=O [N-acetyl-L-cystine ethyl ester]	74	31	–
COc1ccc(C(=O)CC(=O)c2ccc(C(C)(C)C)cc2)cc1 [4-tert-butyl-4′-methoxybenzoylmethane]	–	–	AP-1 activation Inhibiting ratio (%) (AP-1; 1 μM): −14%; AP-1 activation Inhibiting ratio (%) (AP-1; 10 μM): 17%
CCCCC(=O)N[C@@H](CSSC[C@H](NC(=O)CCCC)C(N)=O)C(N)=O [N,N′-di(n-valeryl)-L-cystine diamide]	53	8	–
CCCC(=O)N[C@@H](CSSC[C@H](NC(=O)CCC)C(N)=O)C(N)=O [N,N′-di(n-butyryl)-L-cystine diamide]	11	45	–
CCCCCCC(=O)N[C@@H](CSSC[C@H](NC(=O)CCCCCC)C(=O)OC)C(=O)OC [N,N′-di(n-heptanoyl)-L-cystine dimethyl ester]	103	25	–
CCOC(=O)[C@H](CSSC[C@H](NC(C)=O)C(=O)OCC)NC(C)=O [N,N′-diacetyl-L-cystine diethyl ester]	107	37	–
S=C(S)N1CCCC1 [pyrrolidine dithiocarbamate, reference compound]	–	9	Inhibition ratio (%) of NF-κB activation (NF-κB; addition concentration 0.005 mM): −2%; NF-κB activation inhibiting function (in words) (NF-κB; summary of Tables 2a and 2b): did not exhibit the NF-κKB activation inhibiting function
O=C1O[C@H]([C@@H](O)CO)C(O)=C1O [L (+) ascorbic acid]	–	–	AP-1 activation Inhibiting ratio (%) (AP-1; 0.1 mM): 1%; AP-1 activation Inhibiting ratio (%) (AP-1; 1 mM): 0%; Wrinkle score (group average) (Hairless mice (SKH-1); 5% alone, 2nd week): 1.0; Wrinkle score (group average) (Hairless mice (SKH-1); 5% alone, 3rd week): 2.0; Wrinkle score (group average) (Hairless mice (SKH-1); 5% alone, 4th week): 4.0; Wrinkle score (group average) (Hairless mice (SKH-1); 5% alone, 5th week): 4.0
CCCCCC(=O)N[C@@H](CSSC[C@H](NC(=O)CCCCC)C(=O)OC)C(=O)OC [N,N′-di(n-hexanoyl)-L-cystine dimethyl ester]	77	43	–
CCCCCCCCCCCC(=O)N[C@@H](CSSC[C@H](NC(=O)CCCCCCCCCCC)C(=O)OC)C(=O)OC [N,N′-dilauroyl-L-cystine dimethyl ester]	59	52	–
CCOC(=O)[C@@H](N)CSSC[C@H](N)C(=O)OCC [L-cystine diethyl ester]	50	–	Inhibition ratio (%) of NF-κB activation (NF-κB; addition concentration 0.5 mM): >100%
O=C(O)c1ccccc1O [Salicylic acid]	–	–	Wrinkle score (group average) (Hairless mice (SKH-1); 5% alone, 2nd week): 2.0; Wrinkle score (group average) (Hairless mice (SKH-1); 5% alone, 3rd week): 1.5; Wrinkle score (group average) (Hairless mice (SKH-1); 5% alone, 4th week): 1.5; Wrinkle score (group average) (Hairless mice (SKH-1); 5% alone, 5th week): 2.5
CCCCC(CC)COC(=O)C=Cc1ccc(OC)cc1 (stereo not shown) [2-ethylhexyl p-methoxycinnamate]	–	–	AP-1 activation Inhibiting ratio (%) (AP-1; 10 μM): −20%; AP-1 activation Inhibiting ratio (%) (AP-1; 100 μM): 11%; Wrinkle score (group average) (Hairless mice (SKH-1); 3% alone, 2nd week): 0.0; Wrinkle score (group average) (Hairless mice (SKH-1); 3% alone, 3rd week): 0.5; Wrinkle score (group average) (Hairless mice (SKH-1); 3% alone, 4th week): 1.5; Wrinkle score (group average) (Hairless mice (SKH-1); 3% alone, 5th week): 0.5
CC(=O)N[C@@H](CSSC[C@H](NC(C)=O)C(=O)OC(C)C)C(=O)OC(C)C [N,N′-diacetyl-L-cystine diisopropyl ester]	48	19	–
CC1(C)[C@@H](O)CC[C@]2(C)[C@H]3C(=O)C=C4[C@@H]5C[C@@](C)(C(=O)O)CC[C@]5(C)CC[C@@]4(C)[C@]3(C)CC[C@@H]12 [glycyrrhetinic acid]	–	–	AP-1 activation Inhibiting ratio (%) (AP-1; 10 μM): 2%; AP-1 activation Inhibiting ratio (%) (AP-1; 100 μM): −104%
